This note sets out measurements from US6562850B1, “Methods of synthesizing sultams and anti-viral compositions” (The University of Tennessee Research Corporation, priority 1998, dated 2003).

In one series the test system is HIV-1. Description: anti-HIV-1 activity, National Cancer Institute (Weislow) protocol. Type of series: cell-based. Conditions: for IC50: IC50 beside EC50 and TI50 (not further defined in the patent); for Act.: activity class as per the NCI protocol.
The mark [1] stands for this setting: Human immunodeficiency virus 1, NCI Weislow protocol.

Regarding “(R,S)-2,5-Dimethyl-3-phenyl-2,3-dihydrobenzo[d]isothiazole 1,1-dioxide [Compound 47]”, the IC50 (usually the point on the concentration scale where inhibition reaches its midpoint) with HIV-1 (NCI Weislow protocol) worked out at 156 µM. This compound also gave a TI50 in the series on HIV-1 (NCI Weislow protocol, therapeutic index column) of 5.03. Moreover, the midpoint of the response in the series with HIV-1 (anti-HIV-1 activity, NCI Weislow protocol), the EC50, lay at 31 µM.

Take `CN1[C@H](c2ccc(O)cc2)c2ccccc2S1(=O)=O` [Compound 22, (−)-4-[(3R)-2-Methyl-1,1-dioxo-2,3-dihydrobenzo-[d]-isothiazol-3-yl]phenol]: the melting point (as a rule, the temperature, or range, at which the solid turns liquid) lay within 178 to 179 °C. The compound also yielded an IC50 with HIV-1 (setting [1]) greater than 200 µM. Further, in the series with HIV-1, the Act. result was “I”.

`CN1[C@@H](c2ccc(O)cc2)c2ccccc2S1(=O)=O` [Compound 21, (+)-4-[(3S)-2-Methyl-1,1-dioxo-2,3-dihydrobenzo[d]isothiazol-3-yl]phenol] returned a melting point of 178 to 180 °C. The compound further registered an IC50 in the series with HIV-1 (setting [1]) greater than 200 µM. Further, in the series on HIV-1, the Act. entry was “I”.

Take “(R,S)-4-(2-Methyl-1,1-dioxo-2,3-dihydrobenzo[d]isothiazol-3-yl)phenol [Compound 20]”: the 50% inhibitory concentration (IC50) in the series with HIV-1 (NCI Weislow protocol) is greater than 200 µM. Also, the Act. entry in the series on HIV-1 is given as “I”.
